Reference: US12139470B2, “Trioxolane agents” (The Regents of the University of California, priority 2017, dated 2024)
Values after ≈ are worked out from the molar mass of the structure shown. Like-named read-outs stand apart in the source and are kept apart here.

Tests used:
[1] = Mouse liver microsome assay (half-life, intrinsic clearance); conditions: for T1/2: half-life when incubated with mouse liver microsomes
Description: A second hypothesis regarding trans-R^A substitution (R^A in Scheme 1) was that the resulting de-symmetrized molecular topology would impact the vivo PK/PD properties of these analogs. […] To explore possible metabolic differences, we evaluated selected analogs with mouse liver microsomes and derived intrinsic clearance (CLint) values (Table 1).

Plasmodium berghei [2] = experiment: Plasmodium berghei mouse malaria model (Peters test, cures at 30 days); format: in vivo; conditions: po, 720 h; for responders at 4 mg/kg: Table 6, 4 mg/kg
Description: The suppressive 4-day “Peters test” ^27 involving P. berghei infected mice provides a convenient and cost effective means to assess the overall in vivo performance of pre-clinical antimalarials. […] Mice were followed for 30 days and judged to have been cured of the infection based on the lack of detectable parasitemia at the end of the study.
Female Swiss Webster Mice (average of 20 g body weight) were infected intraperitoneally with 10^6 Plasmodium berghei-infected erythrocytes collected from a previously infected mouse. […] There were five mice in each test arm. Infections were monitored by daily microscopic evaluation of Giemsa-stained blood smears starting on day seven. Parasitemia were determined by counting the number of infected and uninfected erythrocytes. Body weight was measured over the course of the treatment. […] Animal survival and morbidity were closely monitored for up to 30 days post-infection when the experiment was terminated. In some cases survival is expressed as a PD100 or PD50, the dose that produces respectively 100% or 50% cures in treated animals at 30 days post infection.

[3] = Kinetic solubility in PBS; format: physicochemical; conditions: kinetic solubility in PBS (pH = 7.4), final DMSO 5%, average of three determinations
[4] = tested on: clinical K13-mutant strain; conditions: pulsed exposure; cited from earlier work
[5] = tested on: K13 revertant strain bearing the wild type K13 allele; conditions: pulsed exposure; cited from earlier work
[6] = tested on: Plasmodium falciparum: strain W2; experiment: Plasmodium falciparum growth inhibition assay (EC50 determinations); format: cell-based; conditions: W2 strain of P. falciparum
Protocol: The growth inhibition assay for P. falciparum was conducted as described previously^29 with minor modifications. […] Following 48 hours of incubation, the cells were fixed by adding 0.1 ml of 2% formaldehyde in phosphate buffered saline, pH=7.4 (PBS). […] Parasitemias were determined from dot plots (forward scatter vs. fluorescence) using [sequence] software (Becton Dickinson). EC50 values for growth inhibition were determined from plots of percentage control parasitemia over inhibitor concentration using GraphPad Prism software.

[7] = clinical setting; cited from earlier work
PC3 tumor = experiment: Biodistribution of 18F probes in PC3 tumor-bearing mice; format: in vivo, mouse
Protocol: FIG. 6. B9[^18F] biodistribution in PC3-bearing mice. An intravenous injection of 300 μCi was given at the tail vein of each mouse. At 30, 60 and 90 minutes post-injection, mice were sacrificed and their organs collected. […] FIG. 7. B9[^18F] biodistribution in PC3-bearing mice. An intravenous injection of 300 μCi was given at the tail vein of mice containing either a subcutaneous PC3 tumor or a renal capsule PC3 tumor. At 60 minutes post-injection, mice were sacrificed and their organs collected. […] FIG. 8. B20[^18F] biodistribution in PC3 tumor-bearing nude mice: An intravenous injection of 300 μCi was given at the tail vein of each mouse. At 60 and 90 minutes post-injection, mice were sacrificed and their organs collected. The radioactivity in the tumor appears to be stable at about 0.3% id/gram.

Plasmodium berghei [8] = experiment: Plasmodium berghei mouse malaria model (Peters test, cures at 30 days); format: in vivo; conditions: po, 720 h, oral gavage, read-out: Mice Cured (%)
[9] = Table 4, 4 mg/kg/day, once a day for four days, oral gavage, read-out: Mice Cured (%)
[10] = Table 4, 6 mg/kg/day, once a day for four days, oral gavage, read-out: Mice Cured (%)

SMILES | T1/2 [1] | CLint ([1]; mouse, microsomes) | T1/2 (min) No NADPH ([1]; mouse, microsomes) | responders at 4 mg/kg/day (Plasmodium berghei [2]; [9]) | responders at 6 mg/kg/day (Plasmodium berghei [2]; [10]) | further results
CC(C)(CN)CNC(=O)C[C@@H]1CCC[C@]2(C1)OOC1(O2)C2CC3CC(C2)CC1C3 (stereo partly drawn) [12d, N-(3-Amino-2,2-dimethylpropyl)-2-((R,R)-dispiro[adamantane-2,3′-[1,2,4]trioxolane-5′,1″-cyclohexan]-3″-yl)acetamide] | 1.07 h | 10.8 μL/min/mg of protein | stable | 0% | 0% | –
CC(C)(N)CNC(=O)C[C@@H]1CCC[C@]2(C1)OOC1(O2)C2CC3CC(C2)CC1C3 (stereo partly drawn) [12a, N-(2-Amino-2-methylpropyl)-2-((R,R)-dispiro[adamantane-2,3′-[1,2,4]trioxolane-5′,1″-cyclohexan]-3″-yl)acetamide] | 2.82 h | 4.1 μL/min/mg of protein | stable | 60% | 100% | Solubility [3]: 429 µM (≈ 168 µg/mL); responders at 9.5 mg/kg/day (Plasmodium berghei [2]; Table 2, free base, 9.5 mg/kg/day, once a day for four days, oral gavage, no parasitemia at 30 days, read-out: Mice Cured (%)): 100%; responders at 13.6 mg/kg/day (Plasmodium berghei [2]; Table 2, tosylate salt, 13.6 mg/kg/day, once a day for four days, oral gavage, no parasitemia at 30 days, read-out: Mice Cured (%)): 100%; responders at 1 mg/kg/day (Plasmodium berghei [2]; Table 3, free base, 1 mg/kg/day, four daily doses, oral gavage, read-out: Mice Cured (%)): 0%; responders at 4 mg/kg/day (Plasmodium berghei [2]; Table 3, free base, 4 mg/kg/day, four daily doses, oral gavage, read-out: Mice Cured (%)): 0%; responders at 6 mg/kg/day (Plasmodium berghei [2]; Table 3, free base, 6 mg/kg/day, four daily doses, oral gavage, read-out: Mice Cured (%)): 60%; responders at 10 mg/kg/day (Plasmodium berghei [2]; Table 3, free base, 10 mg/kg/day, four daily doses, oral gavage, read-out: Mice Cured (%)): 100%
c1cc([C@H]2CC[C@]3(CC2)OO[C@]2(O3)C3CC4CC(C3)CC2C4)ccc1OCCN1CCOCC1 [3Z, artefenomel] | – | – | – | – | – | time to reduce early ring viability by 50% (t50) [4]: ~5 h; time to reduce early ring viability by 50% (t50) [5]: ~2 h
O=C(C[C@@H]1CCC[C@]2(C1)OOC1(O2)C2CC3CC(C2)CC1C3)N1CCOCC1 (stereo partly drawn) [12f, 2-((R,R)-Dispiro[adamantane-2,3′-[1,2,4]trioxolane-5′,1″-cyclohexan]-3″-yl)-1-morpholinoethan-1-one] | – | – | – | 0% | 0% | potency of 12f relative to regioisomer 2f [6]: three-fold more potent than 2f
CN1CCN(C(=O)C[C@@H]2CCC[C@]3(C2)OOC2(O3)C3CC4CC(C3)CC2C4)CC1 (stereo partly drawn) [12h, 2-((R,R)-Dispiro[adamantane-2,3′-[1,2,4]trioxolane-5′,1″-cyclohexan]-3″-yl)-1-(4-methylpiperazin-1-yl)ethan-1-one] | – | – | – | 0% | 0% | –
O=C(C[C@@H]1CCC[C@]2(C1)OOC1(O2)C2CC3CC(C2)CC1C3)N1CCNCC1 (stereo partly drawn) [12g, 2-((R,R)-Dispiro[adamantane-2,3′-[1,2,4]trioxolane-5′,1″-cyclohexan]-3″-yl)-1-(piperazin-1-yl)ethan-1-one] | 0.425 h | 27.2 μL/min/mg of protein | stable | 0% | 20% | –
C[C@H]1[C@@H](O)O[C@@H]2O[C@@]3(C)CC[C@H]4[C@H](C)CC[C@@H]1[C@@]24OO3 [DHA, dihydroartemisinin] | – | – | – | – | – | half-life [7]: ~1 h
NC(=O)CNC(=O)C[C@@H]1CCC[C@]2(C1)OOC1(O2)C2CC3CC(C2)CC1C3 (stereo partly drawn) [12b, N-(2-Amino-2-oxoethyl)-2-((R,R)-dispiro[adamantane-2,3′-[1,2,4]trioxolane-5′,1″-cyclohexan]-3″-yl)acetamide] | 0.622 h | 18.6 μL/min/mg of protein | stable | – | – | –
C[C@]12CC[C@H]3[C@@H](CCC4=CC(=O)CC[C@@]43C)[C@@H]1CC[C@@H]2O [testosterone] | – | – | – | – | – | Solubility [3]: 315 µM (≈ 90.9 µg/mL)
Cc1ncc2n1-c1ccc(Cl)cc1C(c1ccccc1F)=NC2 [midazolam] | 0.0275 h | – | – | – | – | CLint ([1]; mouse liver microsomes, CLint = Ln(2)*1000/T1/2/protein concentration): 420 μL/min/mg of protein
N[C@H]1CC[C@H](NC(=O)C[C@@H]2CCC[C@]3(C2)OOC2(O3)C3CC4CC(C3)CC2C4)CC1 (stereo partly drawn) [12j, N-((trans)-4-Aminocyclohexyl)-2-((R,R)-dispiro[adamantane-2,3′-[1,2,4]trioxolane-5′,1″-cyclohexan]-3″-yl)acetamide] | – | – | – | 60% | 100% | –
O=C(NCCCNC(=O)C12CC3CC(C1)[C@]1(OO[C@]4(CC[C@@H](c5ccc(OCCN6CCOCC6)cc5)CC4)O1)C(C3)C2)c1ccc(F)cc1 [B9[^18F], N-(3-(4-[^18F]fluorobenzamido)propyl)-4″-(4-(2-morpholinoethoxy)phenyl)dispiro[adamantane-2,3′-[1,2,4]trioxolane-5′,1″-cyclohexane]-5-carboxamide] | – | – | – | – | – | biodistribution, subcutaneous vs renal capsule PC3 tumor (PC3 tumor; 300 μCi i.v. tail vein, 60 minutes post-injection): no major differences noticed between the two xenograft models; radioactivity in the tumor (PC3 tumor; PC3-bearing mice, 300 μCi i.v. tail vein, 30, 60 and 90 minutes post-injection): up to 4 % id/gram
NCCNC(=O)C[C@@H]1CCC[C@]2(C1)OOC1(O2)C2CC3CC(C2)CC1C3 (stereo partly drawn) [12c, N-(2-Aminoethyl)-2-((R,R)-dispiro[adamantane-2,3′-[1,2,4]trioxolane-5′,1″-cyclohexan]-3″-yl)acetamide] | 1.41 h | 8.2 μL/min/mg of protein | – | 100% | 100% | T1/2 (min) No NADPH ([1]; mouse liver microsomes, no NADPH): 136 min; responders at 4 mg/kg (Plasmodium berghei [8]; Table 6, 4 mg/kg, 3 daily doses): 20%; responders at 40 mg/kg (Plasmodium berghei [8]; Table 7, 40 mg/kg, 1 dose): 0%; responders at 80 mg/kg (Plasmodium berghei [8]; Table 7, 80 mg/kg, 1 dose): 20%; responders at 0.5 mg/kg/day (Plasmodium berghei [2]; Table 5, 0.5 mg/kg/day, once a day for four days, oral gavage, read-out: Mice Cured (%)): 0%; responders at 1 mg/kg/day (Plasmodium berghei [2]; Table 5, 1 mg/kg/day, once a day for four days, oral gavage, read-out: Mice Cured (%)): 0%; responders at 2 mg/kg/day (Plasmodium berghei [2]; Table 5, 2 mg/kg/day, once a day for four days, oral gavage, read-out: Mice Cured (%)): 0%; responders at 4 mg/kg/day (Plasmodium berghei [2]; Table 5, 4 mg/kg/day, once a day for four days, oral gavage, read-out: Mice Cured (%)): 100%; responders at 4 mg/kg (Plasmodium berghei [2]; 1 dose, oral gavage, read-out: Mice Cured (%)): 0%; responders at 4 mg/kg (Plasmodium berghei [2]; 2 daily doses, oral gavage, read-out: Mice Cured (%)): 0%; responders at 4 mg/kg (Plasmodium berghei [2]; 4 daily doses, oral gavage, read-out: Mice Cured (%)): 100%; responders at 40 mg/kg (Plasmodium berghei [2]; Table 7, 40 mg/kg, 2 doses, oral gavage, read-out: Mice Cured (%)): 100%
CC(C)(N)CNC(=O)C[C@H]1CC[C@]2(CC1)OO[C@]1(O2)C2CC3CC1CC(C(=O)NCCCNC(=O)c1ccc(F)cc1)(C3)C2 [B20[^18F], (1R,2r,3S,4″S,5S,5′s,7S)-4″-(2-((2-amino-2-methylpropyl)amino)-2-oxoethyl)-N-(3-(4-^18F-fluorobenzamido)propyl)dispiro[adamantane-2,3′-[1,2,4]trioxolane-5′,1′″-cyclohexane]-5-carboxamide] | – | – | – | – | – | radioactivity in the tumor (PC3 tumor; PC3 tumor-bearing nude mice, 300 μCi i.v. tail vein, 60 and 90 minutes post-injection): about 0.3 % id/gram
c1cc([C@H]2CC[C@]3(CC2)OO[C@]2(O3)C3CC4CC(C3)CC2C4)ccc1OCCN1CCOCC1 [3Z (artefenomel)] | – | – | – | – | – | responders at 40 mg/kg (Plasmodium berghei [2]; read-out: Mice Cured (%), Table 7, 40 mg/kg, 1 dose, oral gavage): 100%; responders at 80 mg/kg (Plasmodium berghei [2]; read-out: Mice Cured (%), Table 7, 80 mg/kg, 1 dose, oral gavage): 100%
NC1CCN(C(=O)C[C@@H]2CCC[C@]3(C2)OOC2(O3)C3CC4CC(C3)CC2C4)CC1 (stereo partly drawn) [12i, 1-(4-Aminopiperidin-1-yl)-2-((R,R)-dispiro[adamantane-2,3′-[1,2,4]trioxolane-5′,1″-cyclohexan]-3″-yl)ethan-1-one] | 1.41 h | 8.2 μL/min/mg of protein | stable | – | – | –
